For this test, the system named is IL-8 cytokine release. The test is described as follows: IL-8 assay: TNFα-induced IL-8 cytokine release from topically treated epidermal equivalents (EPI 200 HCF). It counts as cell-based, human. The following applies: ester added to 4-hexyl resorcinol-containing composition; result in words. As to the method:
An IL-8 assay was performed on the compositions of Example I to investigate the release of pro-inflammatory mediators in human epithelial cells as follows.
Epidermal equivalents (EPI 200 HCF), multilayer and differentiated epidermis consisting of normal human epidermal keratinocytes, were purchased from MatTek (Ashland, Mass.). Upon receipt, epidermal equivalents were incubated for 24 hours at 37° C. in maintenance medium without hydrocortisone. Equivalents were topically treated (2 mg/cm^2) with formulation in example 1 for 2 hours before exposure to 100 ng/mL of Tumor Necrosis Factor-α (TNFα, available from Sigma-Aldrich of St Louis, Mo.). Equivalents were incubated for 4 hours at 37° C. with maintenance medium then supernatants were analyzed for IL-8 cytokine release using commercially available kits (Upstate Biotechnology, Charlottesville, Va.). Percent Reduction in IL-8 was calculated for the compositions relative to Comparative Composition C1 (without ester): Percent Reduction=[1−(Valuesample/Valuebase)]×100 where Valuesample was the IL-8 level of the composition tested and Valuebase was the IL-8 value of Comparative Composition C1.
Additional IL-8 Assays were performed as described in Example II. Compositions (described in Table 2) containing 4-hexyl resorcinol with different esters, each present at 3% by weight, were compared with Composition 6 according to the invention containing 3% by weight pentaerythritol tetraethylhexanoate.

As for `CCCCC(CC)C(=O)OCC(COC(=O)C(CC)CCCC)(COC(=O)C(CC)CCCC)COC(=O)C(CC)CCCC` (stereo not shown) [pentaerythritol tetraethylhexanoate], the “boost in the activity (IL-8 inhibition) of 4-hexyl resorcinol over compositions without the ester” value is “substantial boost”.

Regarding octyldodecyl neopentanoate, the “boost in the activity (IL-8 inhibition) of 4-hexyl resorcinol over compositions without the ester” value is “substantial boost”.

Consider isononyl isonanoate, for which the “boost in the activity (IL-8 inhibition) of 4-hexyl resorcinol over compositions without the ester” value is recorded as “only a modest boost or no boost at all”.

Turning to `CCCCCCC(=O)OCC(C)(C)COC(=O)CCCCCC` [neopentyl glycol diheptanoate], the “boost in the activity (IL-8 inhibition) of 4-hexyl resorcinol over compositions without the ester” value is on record as “only a modest boost or no boost at all”.

The values are drawn from patent US10307352B2, “Low oil compositions comprising a 4-substituted resorcinol and a high carbon chain ester” (Johnson & Johnson Consumer Inc., priority 2012, dated 2019).
